Test systems include BT-549; CAKI-1; CCRF-CEM; HCT-116; HOP-62; IGROV-1; K562; LOX IMVI; MCF7; MOLT-4; NCI-H226; OVCAR-3; OVCAR-8; PC-3; RXF 393; SF-268; SK-MEL-2; SN12C; SNB-75; UACC-62.
Assay in all cases: DTP human tumour cell line panel, 48 h

Structures are written as SMILES.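 Five compound concentrations were applied to cells in 96-well plates for 48 hours; endpoints were derived by simple linear interpolation of the resulting dose-response curve. GI50 is the concentration that inhibits growth by half.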 Activity calls are given as the source filed them. Rule as the data show it: active = GI50 up to about 1.1 µM and inactive = higher.

For `O=C1C2=Cc3ccccc3CCN2c2ccccc21`, the GI50 in the experiment on BT-549 is 13.8 µM (inactive); in the experiment on CAKI-1, 19.1 µM (inactive); in the experiment with CCRF-CEM it was 13.6 µM (inactive); with HCT-116, 21.3 µM (inactive); in the experiment with HOP-62 it was > 63.8 µM (inactive); in the experiment on IGROV-1, 30.2 µM (inactive). In addition, the GI50 in the experiment on K562 is 12.7 µM (inactive); with LOX IMVI, 17.3 µM (inactive); in the experiment on MCF7 it was 14.9 µM (inactive); in the experiment on MOLT-4, 18.7 µM (inactive); with NCI-H226, 13.9 µM (inactive); in the experiment with OVCAR-3, 91.4 µM (inactive). Also, the GI50 with OVCAR-8 was 23.6 µM (inactive); with PC-3, 35.2 µM (inactive); in the experiment on RXF 393, > 10 µM (inactive); in the experiment with SF-268 it was > 50.8 µM (inactive); in the experiment with SK-MEL-2, 21 µM (inactive); with SN12C, 18.8 µM (inactive). In addition, the GI50 in the experiment on SNB-75 was > 100 µM (inactive); in the experiment with UACC-62, > 10 µM (inactive).
On to `O=C(N(C1=CCCC1)N(c1ccccc1)c1ccccc1)C(F)(F)F`, for which the GI50 in the experiment with BT-549 was 29.9 µM (inactive); in the experiment with CAKI-1 it was 20.2 µM (inactive); in the experiment with CCRF-CEM, 23.4 µM (inactive); in the experiment on HCT-116 it was 21.5 µM (inactive); with HOP-62, 25.5 µM (inactive); with K562, 19.5 µM (inactive). For the same compound, the GI50 is 15.8 µM (inactive) in the experiment on LOX IMVI; 19.7 µM (inactive) in the experiment with MCF7; 14 µM (inactive) in the experiment on MOLT-4; 19.7 µM (inactive) in the experiment on NCI-H226; 18.9 µM (inactive) with OVCAR-3; 29.9 µM (inactive) with OVCAR-8. Besides, the GI50 in the experiment on PC-3 was 30.3 µM (inactive); in the experiment with RXF 393, 17 µM (inactive); in the experiment with SF-268 it was 16.7 µM (inactive); in the experiment on SK-MEL-2, 17.1 µM (inactive); with SN12C, 26.9 µM (inactive); in the experiment on SNB-75, 20 µM (inactive). For the same compound, the GI50 with UACC-62 is 25.8 µM (inactive).
On to `COC(=O)/C=c1/c2ccccc2n2c1c1ccccc1[n+]2C`, for which the GI50 in the experiment on BT-549 is 3.3 µM (inactive); in the experiment on CAKI-1 it was 15.1 µM (inactive); with CCRF-CEM it was 3.3 µM (inactive); in the experiment with HCT-116, 3.31 µM (inactive); with HOP-62 it was 3.05 µM (inactive); in the experiment with IGROV-1, 3.56 µM (inactive). Moreover, the GI50 in the experiment on K562 is 3.64 µM (inactive); in the experiment with LOX IMVI, 4.27 µM (inactive); with MCF7 it was 3.34 µM (inactive); in the experiment on MOLT-4, 4.27 µM (inactive); in the experiment on NCI-H226, 5.52 µM (inactive); in the experiment on OVCAR-3, 3.55 µM (inactive). The GI50 was 3.33 µM (inactive) with OVCAR-8; 2.81 µM (inactive) with PC-3; 4.54 µM (inactive) with RXF 393; 5.38 µM (inactive) with SF-268; 4.08 µM (inactive) in the experiment with SK-MEL-2; 3.65 µM (inactive) in the experiment on SN12C. The GI50 was 3.69 µM (inactive) in the experiment with SNB-75 and 6.73 µM (inactive) in the experiment with UACC-62.
`O=C1C=Cc2c(Cl)sc(Cl)c21`: the GI50 is 3.08 µM (inactive) in the experiment with BT-549; 2.15 µM (inactive) with CAKI-1; 0.234 µM (active) in the experiment on CCRF-CEM; 0.752 µM (active) with HCT-116; 1.74 µM (inactive) with HOP-62; 1.63 µM (inactive) in the experiment with IGROV-1. The GI50 was 0.767 µM (active) in the experiment on K562; 0.372 µM (active) in the experiment on LOX IMVI; 1.05 µM (active) with MCF7; 0.12 µM (active) in the experiment with MOLT-4; 6.4 µM (inactive) in the experiment with NCI-H226; 1.85 µM (inactive) in the experiment with OVCAR-3. Moreover, the GI50 is 1.6 µM (inactive) with OVCAR-8; 1.88 µM (inactive) in the experiment on PC-3; 2.09 µM (inactive) in the experiment with RXF 393; 1.66 µM (inactive) with SF-268; 2.2 µM (inactive) in the experiment with SK-MEL-2; 2.18 µM (inactive) with SN12C. For the same compound, the values for the GI50 in the experiment on SNB-75 and in the experiment with UACC-62 were 3.61 µM (inactive) and 3.01 µM (inactive), respectively.
For the compound `CC(=O)C1=C(c2ccccc2)N(C2OC(CO)C(O)C(O)C2O)C(S)=C(C#N)C1c1ccc(Cl)cc1` (stereo not drawn), the GI50 with BT-549 was 15.9 µM (inactive); in the experiment with CAKI-1 it was 29 µM (inactive); in the experiment on CCRF-CEM, 34.8 µM (inactive); with HCT-116 it was 16 µM (inactive); in the experiment with HOP-62 it was 30.2 µM (inactive); with IGROV-1 it was 39.7 µM (inactive). Further, the GI50 is 32.7 µM (inactive) in the experiment with K562; 18.5 µM (inactive) in the experiment with LOX IMVI; 20.1 µM (inactive) in the experiment with MCF7; 15.8 µM (inactive) in the experiment with MOLT-4; 20.7 µM (inactive) in the experiment on NCI-H226; 21.6 µM (inactive) in the experiment with OVCAR-3. Also, the GI50 in the experiment on OVCAR-8 was 33.5 µM (inactive); in the experiment with PC-3, 22.1 µM (inactive); in the experiment on RXF 393, 28.6 µM (inactive); in the experiment with SF-268, 24.8 µM (inactive); in the experiment with SK-MEL-2, 12.9 µM (inactive); in the experiment with SN12C, 38.5 µM (inactive). Further, the GI50 with SNB-75 is 28.8 µM (inactive); with UACC-62, 16.4 µM (inactive).
As for `O=C1CCCC2=C(N1)C(=O)C=CC2=O`, the GI50 with BT-549 is 16.7 µM (inactive); in the experiment on CAKI-1, 32.5 µM (inactive); in the experiment on CCRF-CEM, 10.6 µM (inactive); with HCT-116, 33.7 µM (inactive); in the experiment with HOP-62, 44.4 µM (inactive); with IGROV-1, 43 µM (inactive). Further, the GI50 in the experiment with K562 was 6.73 µM (inactive); in the experiment on LOX IMVI, > 53.5 µM (inactive); in the experiment on MCF7, 18.8 µM (inactive); in the experiment with MOLT-4 it was 12.3 µM (inactive); in the experiment on NCI-H226, 11.1 µM (inactive); with OVCAR-3 it was 43.5 µM (inactive). The GI50 was 47.4 µM (inactive) in the experiment on OVCAR-8; 16.1 µM (inactive) in the experiment with PC-3; 45 µM (inactive) in the experiment on RXF 393; 46.2 µM (inactive) in the experiment with SF-268; 44 µM (inactive) with SK-MEL-2; 29.2 µM (inactive) in the experiment on SN12C. Further, the GI50 in the experiment on SNB-75 was 43.8 µM (inactive); in the experiment with UACC-62, 42.2 µM (inactive).
On to `COC(=O)[C@H]1C=C[C@H](OC2OC(COC(C)=O)C(OC(C)=O)C(OC(C)=O)C2OC(C)=O)n2c(=O)n(-c3ccccc3)c(=O)n21` (stereo partly drawn), for which the GI50 in the experiment with BT-549 is 3.04 µM (inactive); in the experiment on CAKI-1, 0.935 µM (active); with CCRF-CEM it was 2.25 µM (inactive); with HCT-116 it was 2.96 µM (inactive); in the experiment with HOP-62, 8.55 µM (inactive); in the experiment on IGROV-1, 4.98 µM (inactive). Also, the GI50 is 1.77 µM (inactive) in the experiment on K562; 1.84 µM (inactive) in the experiment on LOX IMVI; 2.42 µM (inactive) in the experiment with MCF7; 2.49 µM (inactive) in the experiment on MOLT-4; 7.06 µM (inactive) in the experiment on NCI-H226; 2.91 µM (inactive) with OVCAR-3. Further, the GI50 in the experiment on OVCAR-8 is 5.78 µM (inactive); in the experiment with PC-3, 10.7 µM (inactive); with RXF 393, 1.82 µM (inactive); in the experiment with SF-268, 3.67 µM (inactive); in the experiment on SK-MEL-2, 12.1 µM (inactive); with SN12C, 6.52 µM (inactive). The GI50 is 12.1 µM (inactive) in the experiment on SNB-75 and 1.54 µM (inactive) in the experiment on UACC-62.
For `CC1(C)CC(=O)c2c(nc(SSc3nc4c(c(-c5ccccc5)c3C#N)C(=O)CC(C)(C)C4)c(C#N)c2-c2ccccc2)C1`, the GI50 in the experiment with BT-549, in the experiment with CAKI-1, in the experiment on CCRF-CEM, in the experiment on HCT-116, in the experiment on HOP-62 and in the experiment on IGROV-1 was > 10 µM (inactive) each time. Besides, the GI50 in the experiment with K562, in the experiment on LOX IMVI, in the experiment with MCF7, in the experiment on MOLT-4, with NCI-H226 and with OVCAR-3 was > 10 µM (inactive) throughout. Also, the GI50 in the experiment with OVCAR-8, in the experiment with PC-3, in the experiment with RXF 393, in the experiment on SF-268, with SK-MEL-2 and in the experiment on SN12C was > 10 µM (inactive) in each case. For the same compound, the GI50 in the experiment on SNB-75 was > 10 µM (inactive).
Regarding `CCOC(=O)Cc1ccc(Nc2nc3cc(F)c(F)cc3nc2C(=O)OCC)cc1`, the GI50 in the experiment on BT-549 is 55.6 µM (inactive); in the experiment with CAKI-1, 19.1 µM (inactive); with CCRF-CEM, 42.8 µM (inactive); with HCT-116, 71.9 µM (inactive); in the experiment with HOP-62, > 100 µM (inactive); in the experiment on IGROV-1, 28.7 µM (inactive). Also, the GI50 in the experiment with K562 was 35.7 µM (inactive); in the experiment with LOX IMVI it was 28.1 µM (inactive); with MCF7 it was 37.6 µM (inactive); in the experiment on MOLT-4 it was 44 µM (inactive); in the experiment on NCI-H226 it was 69.3 µM (inactive); in the experiment on OVCAR-3 it was 47.2 µM (inactive). Also, the GI50 with OVCAR-8 was 29.2 µM (inactive); in the experiment on PC-3, 49.5 µM (inactive); with RXF 393 it was 33.9 µM (inactive); in the experiment on SF-268, 64.9 µM (inactive); in the experiment with SK-MEL-2, 22.9 µM (inactive); in the experiment on SN12C, 74.5 µM (inactive). The GI50 in the experiment with SNB-75 was 81.8 µM (inactive); with UACC-62, 39.2 µM (inactive).
On to `COC(=O)c1cccc(OC)c1C#Cc1c(OC)cccc1OC`, for which the GI50 in the experiment on BT-549, in the experiment with CAKI-1, in the experiment with CCRF-CEM, with HCT-116, in the experiment with HOP-62 and in the experiment with IGROV-1 was > 100 µM (inactive) each time. The GI50 in the experiment with K562, in the experiment on LOX IMVI, with MCF7, in the experiment with MOLT-4, in the experiment on NCI-H226 and with OVCAR-3 was > 100 µM (inactive) throughout. For the same compound, the GI50 with OVCAR-8, in the experiment on PC-3, in the experiment on RXF 393, in the experiment with SF-268, in the experiment on SK-MEL-2 and in the experiment on SN12C was > 100 µM (inactive) each time. Moreover, the GI50 in the experiment with SNB-75 and in the experiment on UACC-62 was > 100 µM (inactive) each time.

Values taken from ChEMBL document CHEMBL1201862, “PubChem BioAssay data set” (2004).
